Activity calls are given as the source filed them. The rule behind the calls is not given here.
Assays:
[1] = Metabolic stability in Wistar rat liver microsomes incubated for 10 mins prior to NADPH addition measured after 60 mins by LC/MS/MS analysis; assay type: ADME; conditions: read-out: Stability
Mus musculus = test: Ratio of ED50 for po dosed Swiss albino mouse assessed as inhibition of apomorphine-induced sniffing behavior administered 30 mins prior to apomorphine challenge to ED50 for po dosed Swiss albino mouse assessed as inhibition of apomorphine-induced climbing behavior administered 30 mins prior to apomorphine challenge; assay type: functional
[2] = target: 3',5'-cyclic-AMP phosphodiesterase 4D (Homo sapiens) (UniProt Q08499); test: Inhibition of human recombinant PDE4D using [3H]-cAMP as substrate at 10 uM after 30 mins by two-step radiometric assay
[3] = Apparent permeability of the compound by PAMPA; assay type: physicochemical
Rattus norvegicus [4] = test: Antipsychotic activity in Sprague-Dawley rat prepulse inhibition deficit model assessed as reversal of MK-801-induced effect at 10 mg/kg, po administered 110 mins prior to MK-801 challenge relative to vehicle-treated control; assay type: functional; set-up: scale not given: the % may be the effect or the level left
Rattus norvegicus [5] = test: Antipsychotic activity in Sprague-Dawley rat psychosis model assessed as reversal of MK-801-induced locomotion at 10 mg/kg, po administered 2 hrs prior to MK-801 challenge measured every 5 mins for 1 hr starting 15 mins post MK-801 injection relative to vehicle-treated control; assay type: functional
[6] = target: cGMP-inhibited 3',5'-cyclic phosphodiesterase 3A (Homo sapiens) (UniProt Q14432); test: Inhibition of human recombinant PDE3A using cAMP as substrate at 1 uM after 30 mins by HTRF method
Rattus norvegicus [7] = test: Antipsychotic activity in Sprague-Dawley rat conditioned avoidance response model assessed as escape at 10 mg/kg, po measured after 2 hrs relative to vehicle-treated control; assay type: functional, organism-based; set-up: dose 10 mg/kg
Rattus norvegicus [8] = test: Antipsychotic activity in Sprague-Dawley rat conditioned avoidance response model assessed as avoidance of shock at 10 mg/kg, po measured after 2 hrs relative to vehicle-treated control; assay type: functional
Rattus norvegicus [9] = test: Antipsychotic activity in Sprague-Dawley rat conditioned avoidance response model assessed as avoidance of shock at 1 mg/kg, po measured after 2 hrs relative to vehicle-treated control; assay type: functional
[10] = target: cGMP-specific 3',5'-cyclic phosphodiesterase (Homo sapiens) (UniProt O76074); test: Inhibition of human recombinant PDE5A using […] as substrate at 10 uM after 30 mins by scintillation proximity assay
[11] = Tmax in Swiss albino mouse at 10 mg/kg, po; assay type: ADME, organism-based; set-up: dose 10 mg/kg, route oral; conditions: in vivo
[12] = Tmax in Sprague-Dawley rat at 10 mg/kg, po; assay type: ADME, organism-based; set-up: dose 10 mg/kg, route oral; conditions: in vivo
[13] = Oral bioavailability in Swiss albino mouse at 10 mg/kg […]; assay type: ADME, organism-based; conditions: in vivo
[14] = Cmax in Sprague-Dawley rat at 10 mg/kg, po; assay type: ADME, organism-based; set-up: dose 10 mg/kg, route oral; conditions: in vivo
Rattus norvegicus [15] = test: Antipsychotic activity in Sprague-Dawley rat psychosis model assessed as reversal of MK-801-induced stereotypy at 10 mg/kg, po administered 2 hrs prior to MK-801 challenge measured every 5 mins for 1 hr starting 15 mins post MK-801 injection relative to vehicle-treated control; assay type: functional
[16] = Half life in Sprague-Dawley rat at 10 mg/kg, po; assay type: ADME, organism-based; set-up: dose 10 mg/kg, route oral; conditions: in vivo
[17] = target: T1, cAMP and cAMP-inhibited cGMP 3',5'-cyclic phosphodiesterase 10A (Homo sapiens, UniProt Q9Y233); test: Inhibition of human recombinant GST-tagged PDE10A using [3H]-cAMP as substrate at 1 uM after 30 mins by scintillation proximity assay
[18] = target: 3',5'-cyclic-AMP phosphodiesterase 4D (Homo sapiens) (UniProt Q08499); test: Inhibition of human recombinant PDE4D using [3H]-cAMP as substrate at 1 uM after 30 mins by two-step radiometric assay
[19] = Metabolic stability in CD1 mouse liver microsomes incubated for 10 mins prior to NADPH addition measured after 60 mins by LC/MS/MS analysis; assay type: ADME; conditions: read-out: Stability
[20] = Half life in Swiss albino mouse at 10 mg/kg, po; assay type: ADME, organism-based; set-up: dose 10 mg/kg, route oral; conditions: in vivo
Rattus norvegicus [21] = test: Antipsychotic activity in Sprague-Dawley rat prepulse inhibition deficit model assessed as reversal of MK-801-induced effect at 1 mg/kg, po administered 110 mins prior to MK-801 challenge relative to vehicle-treated control; assay type: functional; set-up: scale not given: the % may be the effect or the level left
[22] = AUC (0 to t) in Swiss albino mouse at 10 mg/kg, po; assay type: ADME, organism-based; set-up: dose 10 mg/kg, route oral; conditions: plasma
[23] = target: T1, cAMP and cAMP-inhibited cGMP 3',5'-cyclic phosphodiesterase 10A; test: Inhibition of human recombinant GST-tagged PDE10A using [3H]-cAMP as substrate after 30 mins by scintillation proximity assay
Rattus norvegicus [24] = test: Antipsychotic activity in po dosed Sprague-Dawley rat prepulse inhibition deficit model assessed as reversal of MK-801-induced effect administered 110 mins prior to MK-801 challenge relative to vehicle-treated control; assay type: functional
Rattus norvegicus [25] = test: Antipsychotic activity in Sprague-Dawley rat psychosis model assessed as reversal of MK-801-induced ataxia at 10 mg/kg, po administered 2 hrs prior to MK-801 challenge measured every 5 mins for 1 hr starting 15 mins post MK-801 injection relative to vehicle-treated control; assay type: functional
Rattus norvegicus [26] = test: Antipsychotic activity in Sprague-Dawley rat psychosis model assessed as reversal of MK-801-induced locomotion at 1 mg/kg, po administered 2 hrs prior to MK-801 challenge measured every 5 mins for 1 hr starting 15 mins post MK-801 injection relative to vehicle-treated control; assay type: functional
Rattus norvegicus [27] = test: Antipsychotic activity in Sprague-Dawley rat psychosis model assessed as reversal of MK-801-induced stereotypy at 3 mg/kg, po administered 2 hrs prior to MK-801 challenge measured every 5 mins for 1 hr starting 15 mins post MK-801 injection relative to vehicle-treated control; assay type: functional
Brain = test: Free drug level in Sprague-Dawley rat brain at 10 mg/kg, po after 1 hr by LC/MS/MS analysis; assay type: ADME, organism-based; set-up: dose 10 mg/kg, route oral; conditions: in vivo
[28] = Metabolic stability in cynomolgus monkey liver microsomes incubated for 10 mins prior to NADPH addition measured after 60 mins by LC/MS/MS analysis; assay type: ADME, Macaca fascicularis; conditions: read-out: Stability
Rattus norvegicus [29] = test: Antipsychotic activity in Sprague-Dawley rat conditioned avoidance response model assessed as avoidance of shock at 2.5 mg/kg, po measured after 2 hrs relative to vehicle-treated control; assay type: functional
Rattus norvegicus [30] = test: Antipsychotic activity in Sprague-Dawley rat conditioned avoidance response model assessed as response failure at 10 mg/kg, po measured after 2 hrs relative to vehicle-treated control; assay type: functional, organism-based; set-up: dose 10 mg/kg
Rattus norvegicus [31] = test: Antipsychotic activity in Sprague-Dawley rat psychosis model assessed as reversal of MK-801-induced stereotypy at 1 mg/kg, po administered 2 hrs prior to MK-801 challenge measured every 5 mins for 1 hr starting 15 mins post MK-801 injection relative to vehicle-treated control; assay type: functional
[32] = AUC (0 to t) in Sprague-Dawley rat at 10 mg/kg, po; assay type: ADME, organism-based; set-up: dose 10 mg/kg, route oral; conditions: plasma
Rattus norvegicus [33] = test: Antipsychotic activity in po dosed Sprague-Dawley rat conditioned avoidance response model assessed as avoidance of shock measured after 2 hrs relative to vehicle-treated control; assay type: functional
[34] = target: cGMP-specific 3',5'-cyclic phosphodiesterase (Homo sapiens) (UniProt O76074); test: Inhibition of human recombinant PDE5A using […] as substrate at 1 uM after 30 mins by scintillation proximity assay
[35] = target: cGMP-dependent 3',5'-cyclic phosphodiesterase (Homo sapiens) (UniProt O00408); test: Inhibition of human recombinant PDE2A using cAMP as substrate at 1 uM after 30 mins by HTRF method
cGMP-dependent 3',5'-cyclic phosphodiesterase (Homo sapiens), sequence (O00408 whole entry): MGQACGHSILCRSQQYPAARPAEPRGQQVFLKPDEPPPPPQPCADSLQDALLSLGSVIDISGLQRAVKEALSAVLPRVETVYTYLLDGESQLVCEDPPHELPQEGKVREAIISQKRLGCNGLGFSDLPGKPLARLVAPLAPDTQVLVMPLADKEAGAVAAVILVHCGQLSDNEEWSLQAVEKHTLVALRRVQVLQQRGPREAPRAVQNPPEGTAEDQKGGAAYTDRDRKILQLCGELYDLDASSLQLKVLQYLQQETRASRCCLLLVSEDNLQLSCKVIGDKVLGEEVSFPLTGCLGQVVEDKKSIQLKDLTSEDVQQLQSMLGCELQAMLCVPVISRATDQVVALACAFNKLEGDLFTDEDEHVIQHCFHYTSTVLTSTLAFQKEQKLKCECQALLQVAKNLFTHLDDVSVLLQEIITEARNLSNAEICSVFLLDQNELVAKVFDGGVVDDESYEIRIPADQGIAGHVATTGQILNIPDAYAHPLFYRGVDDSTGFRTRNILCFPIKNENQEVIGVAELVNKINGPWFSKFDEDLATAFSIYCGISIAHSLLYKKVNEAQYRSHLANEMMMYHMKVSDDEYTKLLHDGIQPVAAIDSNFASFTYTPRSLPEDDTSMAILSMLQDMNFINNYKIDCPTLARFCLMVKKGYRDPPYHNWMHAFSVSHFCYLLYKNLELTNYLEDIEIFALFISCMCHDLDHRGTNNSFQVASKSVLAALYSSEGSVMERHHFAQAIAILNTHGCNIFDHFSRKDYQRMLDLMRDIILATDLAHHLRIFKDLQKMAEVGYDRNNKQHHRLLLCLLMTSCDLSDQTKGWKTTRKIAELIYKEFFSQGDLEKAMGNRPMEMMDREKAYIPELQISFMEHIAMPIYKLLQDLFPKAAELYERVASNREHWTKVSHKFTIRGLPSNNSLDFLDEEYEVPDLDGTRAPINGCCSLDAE

3',5'-cyclic-AMP phosphodiesterase 4D (Homo sapiens), sequence (Q08499 whole entry): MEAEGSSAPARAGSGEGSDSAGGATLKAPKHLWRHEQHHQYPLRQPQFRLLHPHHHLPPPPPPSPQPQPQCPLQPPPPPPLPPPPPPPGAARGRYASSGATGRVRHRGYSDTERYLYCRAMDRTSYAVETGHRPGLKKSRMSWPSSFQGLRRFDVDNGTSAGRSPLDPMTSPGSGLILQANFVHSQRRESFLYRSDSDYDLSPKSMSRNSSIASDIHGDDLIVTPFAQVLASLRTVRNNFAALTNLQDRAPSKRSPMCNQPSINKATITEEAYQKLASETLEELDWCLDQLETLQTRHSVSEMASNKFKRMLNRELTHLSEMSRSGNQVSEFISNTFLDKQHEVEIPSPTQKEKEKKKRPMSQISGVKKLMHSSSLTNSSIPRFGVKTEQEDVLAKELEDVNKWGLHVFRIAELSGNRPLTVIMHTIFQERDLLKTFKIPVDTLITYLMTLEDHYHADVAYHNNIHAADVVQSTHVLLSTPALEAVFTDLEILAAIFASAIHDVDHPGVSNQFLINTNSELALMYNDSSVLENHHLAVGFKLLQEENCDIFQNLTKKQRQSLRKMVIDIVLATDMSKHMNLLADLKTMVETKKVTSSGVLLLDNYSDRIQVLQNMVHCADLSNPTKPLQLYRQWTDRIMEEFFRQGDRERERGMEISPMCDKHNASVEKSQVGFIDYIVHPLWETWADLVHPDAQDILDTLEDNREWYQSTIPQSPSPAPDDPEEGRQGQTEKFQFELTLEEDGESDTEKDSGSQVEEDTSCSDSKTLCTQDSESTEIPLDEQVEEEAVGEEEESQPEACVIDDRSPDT
T1 sequence (Q9Y233 whole entry): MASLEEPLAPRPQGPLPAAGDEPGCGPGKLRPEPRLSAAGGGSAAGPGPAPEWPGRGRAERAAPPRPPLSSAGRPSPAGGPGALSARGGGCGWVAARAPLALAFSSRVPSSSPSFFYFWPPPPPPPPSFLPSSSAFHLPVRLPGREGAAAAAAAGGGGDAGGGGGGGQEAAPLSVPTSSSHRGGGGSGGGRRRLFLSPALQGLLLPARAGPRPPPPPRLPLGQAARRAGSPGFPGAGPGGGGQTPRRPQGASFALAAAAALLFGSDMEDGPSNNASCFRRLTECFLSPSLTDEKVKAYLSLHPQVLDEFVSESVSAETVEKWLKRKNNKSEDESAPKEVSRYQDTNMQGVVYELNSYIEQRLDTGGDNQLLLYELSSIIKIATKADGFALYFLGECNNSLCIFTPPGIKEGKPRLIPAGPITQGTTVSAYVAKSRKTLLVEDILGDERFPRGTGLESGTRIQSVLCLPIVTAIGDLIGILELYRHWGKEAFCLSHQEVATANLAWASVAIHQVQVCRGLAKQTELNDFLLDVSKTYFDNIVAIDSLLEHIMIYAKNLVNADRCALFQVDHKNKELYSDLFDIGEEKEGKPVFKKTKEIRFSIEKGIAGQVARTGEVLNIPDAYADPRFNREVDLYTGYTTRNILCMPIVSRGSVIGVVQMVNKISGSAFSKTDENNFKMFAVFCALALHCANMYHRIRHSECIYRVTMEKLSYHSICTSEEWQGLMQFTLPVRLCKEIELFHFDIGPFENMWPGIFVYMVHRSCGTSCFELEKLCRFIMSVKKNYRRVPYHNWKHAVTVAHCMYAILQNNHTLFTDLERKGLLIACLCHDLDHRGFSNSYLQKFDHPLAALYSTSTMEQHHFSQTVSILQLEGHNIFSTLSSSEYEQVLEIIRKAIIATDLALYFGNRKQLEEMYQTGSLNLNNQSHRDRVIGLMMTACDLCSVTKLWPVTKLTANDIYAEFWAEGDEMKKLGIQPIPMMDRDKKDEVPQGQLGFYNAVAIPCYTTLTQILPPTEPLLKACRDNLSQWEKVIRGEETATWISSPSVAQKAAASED
cGMP-inhibited 3',5'-cyclic phosphodiesterase 3A (Homo sapiens), sequence (Q14432 whole entry): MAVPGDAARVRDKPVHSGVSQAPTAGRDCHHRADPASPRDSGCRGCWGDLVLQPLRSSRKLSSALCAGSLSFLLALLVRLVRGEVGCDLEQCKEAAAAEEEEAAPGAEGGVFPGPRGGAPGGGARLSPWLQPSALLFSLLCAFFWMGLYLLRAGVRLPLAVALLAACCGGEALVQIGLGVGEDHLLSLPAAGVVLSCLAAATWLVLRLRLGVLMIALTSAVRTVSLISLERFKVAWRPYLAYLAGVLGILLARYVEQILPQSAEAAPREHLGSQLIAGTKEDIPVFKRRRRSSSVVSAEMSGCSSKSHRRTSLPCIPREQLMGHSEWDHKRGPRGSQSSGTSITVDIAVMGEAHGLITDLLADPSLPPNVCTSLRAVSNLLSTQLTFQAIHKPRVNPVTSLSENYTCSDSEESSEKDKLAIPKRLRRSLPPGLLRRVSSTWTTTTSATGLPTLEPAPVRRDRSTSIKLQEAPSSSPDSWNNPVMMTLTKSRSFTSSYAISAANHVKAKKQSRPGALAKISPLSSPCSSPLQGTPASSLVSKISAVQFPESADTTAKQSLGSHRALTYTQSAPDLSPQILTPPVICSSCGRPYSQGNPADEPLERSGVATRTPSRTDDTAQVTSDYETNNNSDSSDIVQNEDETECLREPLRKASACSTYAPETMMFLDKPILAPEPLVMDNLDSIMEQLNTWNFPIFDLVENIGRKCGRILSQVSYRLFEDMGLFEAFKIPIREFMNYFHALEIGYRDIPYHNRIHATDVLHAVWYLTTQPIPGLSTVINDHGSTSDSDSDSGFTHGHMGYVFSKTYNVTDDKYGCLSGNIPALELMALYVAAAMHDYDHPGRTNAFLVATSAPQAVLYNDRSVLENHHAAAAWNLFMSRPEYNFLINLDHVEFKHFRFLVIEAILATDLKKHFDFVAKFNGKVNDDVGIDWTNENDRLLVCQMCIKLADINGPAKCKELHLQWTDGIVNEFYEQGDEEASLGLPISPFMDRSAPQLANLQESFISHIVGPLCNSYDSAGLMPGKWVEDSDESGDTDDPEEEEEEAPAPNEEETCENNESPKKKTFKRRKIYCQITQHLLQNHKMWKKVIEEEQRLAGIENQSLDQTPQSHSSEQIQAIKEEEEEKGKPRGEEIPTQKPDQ

**Q.** With Cn1cc(-c2ccc(Oc3nccnc3-c3ccncc3)cc2)c2ncccc21 as the compound, how does the remaining at 1 h [1] read?
**A.** Its remaining at 1 h is 51%.

**Q.** And the “Ratio ED50” value (Mus musculus)?
**A.** The value was 10.63.

**Q.** What about the inhibition [2] of the same compound?
**A.** The inhibition was 33.8%.

**Q.** What about the Papp [3] of the same compound?
**A.** The Papp was 2.97 ×10⁻⁶ cm/s.

**Q.** What about the Activity (Rattus norvegicus [4]) of the same compound?
**A.** The Activity was 88%.

**Q.** What about the Activity (Rattus norvegicus [5]) of the same compound?
**A.** The Activity was 90%.

**Q.** And the inhibition [6]?
**A.** The inhibition was 0%.

**Q.** What about the Activity (Rattus norvegicus [7]) of the same compound?
**A.** Its Activity is “Active”.

**Q.** And the Activity (Rattus norvegicus [8])?
**A.** The Activity was 90%.

**Q.** What about the Activity (Rattus norvegicus [9]) of the same compound?
**A.** The Activity was 17%.

**Q.** And the inhibition [10]?
**A.** The inhibition was 21.6%.

**Q.** And the Tmax [11]?
**A.** The Tmax was 0.5 h.

**Q.** And the Tmax [12]?
**A.** Its Tmax is 2 h.

**Q.** What about the bioavailability [13] of the same compound?
**A.** Its bioavailability is 8%.

**Q.** And the Cmax [14]?
**A.** The Cmax was 27600 ng/mL.

**Q.** What about the Activity (Rattus norvegicus [15]) of the same compound?
**A.** Its Activity is 99%.

**Q.** What about the half-life [16] of the same compound?
**A.** The half-life was 4.4 h.

**Q.** What about the inhibition [17] of the same compound?
**A.** Its inhibition is 98%.

**Q.** And the inhibition [18]?
**A.** Its inhibition is 0%.

**Q.** What about the remaining at 1 h [19] of the same compound?
**A.** The remaining at 1 h was 46.2%.

**Q.** And the half-life [20]?
**A.** Its half-life is 10.4 h.

**Q.** What about the Activity (Rattus norvegicus [21]) of the same compound?
**A.** The Activity was 43%.

**Q.** And the AUC(0-t) [22]?
**A.** The AUC(0-t) was 31.6 µg·h/mL.

**Q.** What about the IC50 [23] of the same compound?
**A.** Its IC50 is 6.3 nM.

**Q.** What about the Activity (Rattus norvegicus [24]) of the same compound?
**A.** The Activity was “Dose-dependent effect”.

**Q.** And the ED50 (Rattus norvegicus [24])?
**A.** The ED50 was 1.47 mg/kg.

**Q.** And the Activity (Rattus norvegicus [25])?
**A.** Its Activity is 86%.

**Q.** What about the Activity (Rattus norvegicus [26]) of the same compound?
**A.** Its Activity is 27%.

**Q.** And the Activity (Rattus norvegicus [27])?
**A.** The Activity was 96%.

**Q.** And the “Drug uptake(free)” value (Brain)?
**A.** Its value is 5 nM.

**Q.** And the remaining at 1 h [28]?
**A.** Its remaining at 1 h is 70.5%.

**Q.** What about the Activity (Rattus norvegicus [29]) of the same compound?
**A.** Its Activity is 64%.

**Q.** What about the Activity (Rattus norvegicus [30]) of the same compound?
**A.** Its Activity is “Active”.

**Q.** And the Activity (Rattus norvegicus [31])?
**A.** The Activity was 95%.

**Q.** And the AUC(0-t) [32]?
**A.** Its AUC(0-t) is 410 µg·h/mL.

**Q.** And the Activity (Rattus norvegicus [33])?
**A.** The Activity was “Dose-dependent effect”.

**Q.** And the ED50 (Rattus norvegicus [33])?
**A.** The ED50 was 2.08 mg/kg.

**Q.** What about the inhibition [34] of the same compound?
**A.** The inhibition was 0.8%.

**Q.** What about the inhibition [35] of the same compound?
**A.** Its inhibition is 3.3%.

Source: ChEMBL document CHEMBL3352660, “Design, synthesis and pharmacological evaluation of novel polycyclic heteroarene ethers as PDE10A inhibitors: part II” (Bioorg Med Chem Lett, 2014)
